# Results taken from patent US4633014A, “Substituted 3-hydrazinopropionates” (priority 1983, dated 1986).
# Assays:
# in vivo = settings: mouse, in vivo, ip
# Protocol: (§1) The study of the effect provided by the compounds according to the present invention on the cardio-vascular system was carried out in experiments on white mice. The specific (antiarrhythmic) effect and acute toxicity were studied.
# (§2) The acute toxicity of the compounds according to the present invention was determined in experiments on white mice with a mass of 20-25 g. The test compounds were administered intraperitoneally in the form of aqueous solutions or suspensions in Twin-80. Observation over the test animals was effected for 10 days.
# white mice = assay: in vivo
# Protocol: as §1, §2
# [1] = test system: arrhythmia induced by an intravenous administration of calcium chloride; assay: Antiarrhythmic activity on a model of arrhythmia induced by intravenous calcium chloride (antagonism to calcium) in mice; format: in vivo; settings: white mice, 20-40 minutes before
# Protocol: The specific (antiarrhythmic) effect and acute toxicity were studied.
# The antiarrhythmic activity of the compounds according to the present invention was studied on a model of arrhythmia induced by an intravenous administration of calcium chloride. In experiments on white mice of both sexes with a mass of 18-25 g narcotized by urethane (1,200 mg/kg intraperitoneally) ECG in the second standard lead was recorded. A 2% solution of calcium chloride was introduced into the tail vein at a constant rate (0.01 ml for 2 sec). The dose of calcium chloride causing arrhythmia and the dose causing the heart arrest were determined. In the test groups the test compounds were administered intraperitoneally 20-40 minutes before the beginning of the experiment.
Structure (SMILES),LD50 at 240 h (in vivo) [mg/kg],"Relative toxisity to quinidine (white mice; mouse, in vivo, ip, 14400 min)",Dose of calcium chloride causing arrythmia in animals under experiment ([1]; intraperitoneal dose 5 mg/kg),Dose of calcium chloride causing death in animals under experiment ([1]; intraperitoneal dose 5 mg/kg),Dose of calcium chloride causing arrythmia in animals under experiment ([1]; intraperitoneal dose 15 mg/kg),Dose of calcium chloride causing death in animals under experiment ([1]; intraperitoneal dose 15 mg/kg),Dose of calcium chloride causing arrythmia in animals under experiment ([1]; intraperitoneal dose 25 mg/kg),Dose of calcium chloride causing death in animals under experiment ([1]; intraperitoneal dose 25 mg/kg),"Relative toxisity to quinidine (white mice; white mice, intraperitoneal, relative to quinidine)"
CNC(=S)N(CCC(N)=O)N(C)C [I-17],2850,"18,3","87,5 mg/kg",138 mg/kg,"102,0 mg/kg",115 mg/kg,,,
"CCCCCCCCCCCCCCCC(=O)N(CCC(=O)OC)N(C)C [I-27, 3-(2,2-dimethyl-1-hexadecanoylhydrazino)methylpropionate]",2380,"15,2","92,7 mg/kg","118,0 mg/kg","109,0 mg/kg","120,6 mg/kg",,,
"CCCCCC(=O)N(CCC(N)=O)N(C)C [I-49, 3-(2,2-dimethyl-1-hexanoylhydrazino)propionamide]",960,"6,1","101,3 mg/kg","120,5 mg/kg","108,6 mg/kg","136,8 mg/kg",,,
CNC(=O)N(C(CC(=O)OC)C(=O)OC)N(C)C (stereo not drawn) [I-55],2300,"14,7","88,7 mg/kg","112,5 mg/kg","111,5 mg/kg","135,0 mg/kg",,,
"CCOC(=O)CCN(C(=S)Nc1ccccc1)N(C)C [I-10, 3-(2,2-dimethyl-1-phenylthiocarbamoylhydrazino)ethylpropionate]",1800,"11,5","102,0 mg/kg","108,8 mg/kg","115,8 mg/kg","125,7 mg/kg",,,
"CN(C)N(CCC#N)C(=S)Nc1ccccc1 [I-23, 3-(2,2-dimethyl-1-phenylthiocarbamoylhydrazino)propionitrile]",1680,"10,7",86 mg/kg,"101,3 mg/kg",,,"117,7 mg/kg","119,0 mg/kg",
"CCOC(=O)CCN(C(=O)NC)N(C)C [I-8, 3-(2,2-dimethyl-1-methylcarbamoylhydrazino)-ethylpropionate]",1870,"11,9","99,4 mg/kg","112,0 mg/kg",,,"123,2 mg/kg","124,6 mg/kg",
"CN(C)N(CCC(N)=O)C(=O)c1ccccc1 [I-51, 3-(2,2-dimethyl-1-benzoylhydrazino)propionamide]",3150,"20,1","88,7 mg/kg","105,5 mg/kg","93,5 mg/kg","112,0 mg/kg",,,
"COC(=O)C(C)CN(C(=O)c1ccccc1F)N(C)C (stereo not drawn) [I-40, 3-(2,2-dimethyl-1-2'-fluorobenzoylhydrazino)-2-methylmethylpropionate]",1400,"8,0","93,5 mg/kg","115,0 mg/kg","103,3 mg/kg","118,6 mg/kg",,,
"CCCC(=O)N(CCC(N)=O)N(C)C [I-48, 3-(2,2-dimethyl-1-butyrylhydrazino)propionamide]",1700,"10,9",88 mg/kg,"101,8 mg/kg","95,3 mg/kg",109 mg/kg,,,
"CNC(=O)N(CCC(N)=O)N(C)C [I-15, 3-(2,2-dimethyl-1-methylcarbamoylhydrazino)-propionamide]",3600,23,"97,8 mg/kg",109 mg/kg,"100,7 mg/kg","108,5 mg/kg",,,
"CNC(=O)N(CC(C)C(=O)OC)N(C)C (stereo not drawn) [I-12, 3-(2,2-dimethyl-1-methylcarbamoylhydrazino)-2-methyl-methylpropionate]",1270,"8,1","106,0 mg/kg","110,0 mg/kg","128,3 mg/kg","130,5 mg/kg",,,
"COC(=O)CCN(C(=O)CCO)N(C)C [I-35, 3-(2,2-Dimethyl-1-3'-hydroxypropanoylhydrazino)-methylpropionate]",> 3000,"> 19,2","102,3 mg/kg",120 mg/kg,"105,8 mg/kg","132,5 mg/kg",,,
"C=CCNC(=S)N(CCC(=O)OCC)N(C)C [I-9, 3-(2,2-dimethyl-1-allylthiocarbamoylhydrazino)ethylpropionate]",1780,"11,4","91,8 mg/kg",107 mg/kg,,,"104,8 mg/kg","116,5 mg/kg",
"COC(=O)CCN(C(=O)Cc1ccccc1)N(C)C [I-30, 3-(2,2-dimethyl-1-benzylcarbonylhydrazino)methylpropionate]",1200,"7,6","94,0 mg/kg","120,5 mg/kg","102,0 mg/kg","125,0 mg/kg",,,
"CN(C)N(CCC(N)=O)C(=O)Nc1ccccc1 [I-16, 3-(2,2-dimethylamino-1-phenylcarbamoylhydrazino)propionamide]",925,,"92,0 mg/kg","115,3 mg/kg","102,5 mg/kg","125,0 mg/kg",,,"5,9"
